Structures can show the parent of a compound that is named as a salt.
Assays:
[1] = biological target: T1, Cathepsin B from human placenta (Homo sapiens, UniProt P07858); assay: Inhibition of cathepsin B, Z-Arg-Arg-AMC fluorescence progress curves; type: biochemical; details: for k/KI (kirr/KI): values without asterisk
T1 construct: Cathepsin B from human placenta, obtained from Sigma; purchased Sigma; host or cells: human placenta (tissue)
Experimental: Stock solutions of the various inhibitors (10 mM) were made in DMF; dilutions were made in the same solvent. Cathepsin B from human placenta, obtained from Sigma, was approximately 10 nM in the assay. The assay buffer contained 50 mM phosphate at pH 6.2, 2.5 mM dithiothreitol (DTT), and 2.5 mM ethylenediaminetetraacetic acid (EDTA). The substrate for cathepsin B was 50 μM Z-Arg-Arg-AMC (carbobenzyloxyarginylarginylaminomethylcoumarin). The assays were initiated at 25° C. by addition of enzyme to 2 mL of assay buffer containing the substrate and the various inhibitors (30-0.001 (μM). The increase in fluorescence at 460 nm with excitation at 380 nm was followed with time, and the assay was linear throughout the range observed. Inactivation of cathepsin B was indicated by a downward curve in the increase in fluorescence with time. In the absence of inhibitors, the enzymatic production of free AMC was linear throughout the time course of inactivation examined. Data points were collected over at least 3 half-times of inactivation, and in duplicate. The inhibition progress curves were analyzed using non-linear curve fitting software to compute the kobs values. Approximate second-order inactivation constants (kobs /[I]) were calculated for all compounds. For selected inhibitors, plots of 1/[I] vs. 1/kobs yielded the true constants kirr, KI, and kirr /KI, and were corrected for the presence of substrate by dividing KI (app.) by {1+[S]/Km }.

[2] = biological target: T2, Cathepsin L from rat liver (Rattus norvegicus, UniProt P07154); assay: Inhibition of cathepsin L, Z-Phe-Arg-AMC fluorescence progress curves; type: biochemical; details: for k/KI (kirr/KI): values without asterisk
T2 construct: Cathepsin L from rat liver; from tissue; host or cells: rat liver
Experimental: (§1) Stock solutions of the various inhibitors (10 mM) were made in DMF; dilutions were made in the same solvent. Cathepsin L from rat liver, (see Mason et al., Biochem. J. 226:233-241 (1985)) was approximately 1 nM in the assay. The assay buffer contained 50 mM phosphate at pH 6:2, 2.5 mM dithiothreitol (DTT), and 2.5 mM ethylenediaminetetraacetic acid (EDTA). The substrate for cathepsin L was 5 μM Z-Phe-Arg-AMC (carbobenzyloxyphenylalanylarginylaminomethylcoumarin). The assays were initiated at 25° C. by addition of enzyme to 2 mL of assay buffer containing the substrate and the various inhibitors (30-0.001 μM). The increase in fluorescence at 460 nm with excitation at 380 nm was followed with time. Inactivation of cathepsin L was indicated by a downward curve in the increase in fluorescence with time. In the absence of inhibitors, the enzymatic production of free AMC was linear throughout the time course of inactivation examined. Data points were collected over at least 3 half-times of inactivation. The inhibition progress curves were analyzed using non-linear curve fitting software to compute the kobs values. Approximate second-order inactivation constants (kobs /[I]) were calculated for all compounds. For selected inhibitors, plots of 1/[I] vs. 1/kobs yielded the true constants kirr, KI, and kirr/KI and were corrected for the presence of substrate by dividing KI (app.) by (1+[S]/Km).

[3] = biological target: cruzain, from T. cruzi (Trypanosoma cruzi, UniProt P25779); assay: Inhibition of cruzain, as for cathepsin L; type: biochemical; details: for kinact/KI: pH 6.2, read-out: kobs /[I]* (approximate second-order inactivation constant); for kinact/KI / kobs /[I]* (approximate second-order inactivation constant): values marked *; for k/KI (kirr/KI): values without asterisk
Experimental: as §1
Inhibition of cruzain, from T. cruzi, (see Eakin et at., J. Biol. Chem. 268(9): 6115-6118 (1993)) proceeded exactly as for cathepsin L, outlined above, using an enzyme concentration of 1 nM.

[4] = system: calpain; assay: Inhibition (inactivation) of calpain, Suc-Leu-Tyr-AMC; type: biochemical; details: pH 7.5, 5 mM CaCl2, 25° C.; for k/KI (kirr/KI): values without asterisk; for kobs /[I]*: values marked * (or %)
Experimental: The inhibitors were tested against calpain at 1 or 2% as for the other enzymes. The reaction conditions were 50 mM Tris, pH 7.5, 5 mM CaCl2, 2.5 mM DTT, assayed at 25° C. The substrate was 100 μM Suc-Leu-Tyr-AMC.

[5] = system: Leishmania donovani amastigote infected mouse peritoneal macrophages; assay: In vitro antiprotozoal activity, Leishmania donovani; type: cell-based; details: Leishmania donovani, Peritoneal macrophage, read-out: percentage inhibition, L. donovani
Experimental: (§2) In this table, the in vitro antiprotozoal activities of the indicated compounds were measured as percentage inhibition of Leishmania donovani amastigote infecteda mouse peritoneal macrophages, Trypanosoma cruzi amastigote infected macrophages, and Trypanosoma brucei extracellular bloodstream forms.

[6] = system: Trypanosoma cruzi amastigote infected macrophages; assay: In vitro antiprotozoal activity, Trypanosoma cruzi; type: cell-based; details: Trypanosoma cruzi, Macrophage, read-out: percentage inhibition, T. cruzi
Experimental: as §2

[7] = system: Trypanosoma brucei extracellular bloodstream forms; assay: In vitro antiprotozoal activity, Trypanosoma brucei; type: cell-based; details: Trypanosoma brucei, read-out: percentage inhibition, T. brucei
Experimental: as §2

[8] = system: human malarial parasite Plasmodium falciparum; assay: In vitro protease activity of malarial parasite, substrate Z-Phe-Arg-AMC; type: biochemical; details: cells printed in μM; read-out: P. falciparum IC50 (human)
Source text: The following table summarizes the comparative IC50 values for selected cysteine protease inhibitors against the human malarial parasite Plasmodium falciparum and the mouse malarial parasite Plasmodium vinckei. The substrate used to measure in vitro protease activity was Z-Phe-Arg-AMC.

[9] = biological target: T3, Cloned cathepsin S (Homo sapiens, UniProt P25774); assay: Inhibition of cathepsin S, Z-Val-Val-Arg-AMC fluorescence progress curves; type: biochemical
T3 construct: made in house
Experimental: Stock solutions of the various inhibitors (10 mM) were made in DMF; dilutions were made in the same solvent. Cloned cathepsin S, (see Bromme et al., J. Biol. Chem. 268(&): 4832-4838 (1993)) was less than 1 nM in the assay. The assay buffer contained 100 mM phosphate at pH 6.5, 0.01% Triton, 2.5 mM dithiothreitol (DTT), and 2.5 mM ethylenediaminetetraacetic acid (EDTA). The substrate for cathepsin S was 10 μM Z-Val-Val-Arg-AMC (carbobenzyloxyvalinylvalinylarginylaminomethylcoumarin). The assays were initiated at 25° C. by addition of enzyme to 2 mL of assay buffer containing the substrate and the various inhibitors (30-0.001 μM). The increase in fluorescence at 460 nm with excitation at 380 nm was followed with time. Inactivation of cathepsin S was indicated by a downward curve in the increase in fluorescence with time. In the absence of inhibitors, the enzymatic production of free AMC was linear throughout the time course of inactivation examined. Data points were collected over at least 3 half-times of inactivation. The inhibition progress curves were analyzed using non-linear curve fitting software to compute the kobs values. Approximate second-order inactivation constants (kobs /[I]) were calculated for all compounds. For selected inhibitors, plots of 1/[I] vs. 1/kobs yielded the true constants kirr, KI, and kirr /KI, and were corrected for the presence of substrate by dividing KI (app.) by {1+[S]/Km}.

Sequence of cruzain, from T. cruzi (P25779 123-337 limits assumed): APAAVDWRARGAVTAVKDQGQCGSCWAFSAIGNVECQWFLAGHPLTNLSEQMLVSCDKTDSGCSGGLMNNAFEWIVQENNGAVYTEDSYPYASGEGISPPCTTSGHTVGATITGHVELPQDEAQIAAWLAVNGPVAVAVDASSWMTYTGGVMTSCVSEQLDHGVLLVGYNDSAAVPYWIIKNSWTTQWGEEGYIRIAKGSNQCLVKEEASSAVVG
T3 sequence (P25774 115-331): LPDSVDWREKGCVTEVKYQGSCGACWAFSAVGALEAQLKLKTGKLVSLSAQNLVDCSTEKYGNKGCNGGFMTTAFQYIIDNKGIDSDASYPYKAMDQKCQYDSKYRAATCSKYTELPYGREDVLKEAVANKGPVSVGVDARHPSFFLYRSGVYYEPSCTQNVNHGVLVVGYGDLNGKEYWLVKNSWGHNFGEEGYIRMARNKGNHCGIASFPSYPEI
T2 sequence (P07154 114-288 limits assumed): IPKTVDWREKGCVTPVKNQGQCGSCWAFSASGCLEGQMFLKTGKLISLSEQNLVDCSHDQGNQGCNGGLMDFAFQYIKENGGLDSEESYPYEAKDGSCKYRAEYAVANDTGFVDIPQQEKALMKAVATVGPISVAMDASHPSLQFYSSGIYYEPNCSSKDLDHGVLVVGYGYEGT
T2 sequence (P07154 291-334 limits assumed): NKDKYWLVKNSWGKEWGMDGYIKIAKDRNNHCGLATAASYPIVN

CC(C)(C)OC(=O)C[C@@H](/C=C/S(C)(=O)=O)NC(=O)OC(C)(C)C [Boc-Asp(O-tBu)VSMe, (S)-(E)-3-tert-butoxycarbonylamino-4-tert-butoxycarbonyl-1-methylsulfonyl-1-butene]
k/KI (kirr/KI) ([1]; 25° C., pH 6.2): 0 M⁻¹ s⁻¹ | k/KI (kirr/KI) ([2]; 25° C., pH 6.2): 0 M⁻¹ s⁻¹ | kinact/KI [3]: 800 M⁻¹ s⁻¹ | k/KI (kirr/KI) [4]: 0 M⁻¹ s⁻¹ | inhibition at 3 µM ([5]; 3 uM): 0% | inhibition at 10 µM [5]: 0% | inhibition at 30 µM [5]: 13.4% | inhibition at 90 µM [5]: 12.9% | inhibition at 3 µM [6]: 0% | inhibition at 10 µM [6]: 0% | inhibition at 30 µM [6]: 0% | inhibition at 90 µM [6]: 9.9% | inhibition at 3 µM [7]: 0% | inhibition at 10 µM [7]: 0% | inhibition at 30 µM [7]: 0% | inhibition at 90 µM [7]: 0%

CC(=O)N[C@@H](CC(C)C)C(=O)N[C@@H](CC(C)C)C(=O)N[C@H](/C=C/S(=O)(=O)c1ccccc1)CCS(C)(=O)=O [Ac-Leu-Leu-Met(O2)VSPh, (S)-(E)-3-(acetylleucylleucyl)amino-5-methylsulfonyl-1-phenylsulfonyl-1-pentene]
k/KI (kirr/KI) ([2]; 25° C., pH 6.2): 1,500,000 M^-1 sec^-1 | k/KI (kirr/KI) [3]: 104,000 M^-1 sec^-1 | kobs /[I]* [4]: 8,400 M^-1 sec^-1

(S)-(E)-3-(4-morpholinecarbonylphenylalanyl)amino-1-methylsulfonyl-4-phenyl-1-butene [Mu-Phe-PheVSMe]
kobs /[I]* (approximate second-order inactivation constant) ([2]; values marked *, 25° C., pH 6.2): 100 M⁻¹ s⁻¹ | kobs /[I]* [4]: 260 M⁻¹ s⁻¹ | IC50 [8]: 2 µM

CC(C)C[C@H](NC(=O)OCc1ccccc1)C(=O)N[C@@H](CC(C)C)C(=O)N[C@H](/C=C/S(=O)(=O)c1ccccc1)Cc1ccc(O)cc1 [Z-Leu-Leu-TyrVSPh, (S)-(E)-3-(benzyloxycarbonylleucylleucyl)amino-4-(4-hydroxyphenyl)-1-phenylsulfonyl-1-butene]
kinact/KI ([1]; values marked *, 25° C., pH 6.2, read-out: kobs /[I]* (approximate second-order inactivation constant)): 730 M⁻¹ s⁻¹ | kinact/KI ([9]; values marked *, 25° C., pH 6.5, read-out: kobs /[I]* (approximate second-order inactivation constant)): 280000 M⁻¹ s⁻¹ | kinact/KI [3]: 45000 M⁻¹ s⁻¹ | kobs /[I]* [4]: 36,400 M^-1 sec^-1 | k/KI (kirr/KI) [4]: 24,300 M^-1 sec^-1

CC(N)C(=O)NC(C=CS(C)(=O)=O)Cc1ccccc1 (centres unmarked) [HCl.Ala-PheVSMe]
IC50 [8]: > 100 µM

Cl.NCC(=O)N[C@H](/C=C/S(=O)(=O)c1ccccc1)Cc1ccccc1 [HCl.Gly-Phe-VSPh, (S)-(E)-3-glycylamino-4-phenyl-1-phenylsulfonyl-1-butene hydrochloride]
kobs /[I]* [4]: < 50 M⁻¹ s⁻¹ | inhibition at 10 µM [5]: 0% | inhibition at 30 µM [5]: 0% | inhibition at 90 µM [5]: 4.02% | inhibition at 3 µM [6]: 0% | inhibition at 10 µM [6]: 0% | inhibition at 30 µM [6]: 0.1% | inhibition at 90 µM [6]: 0% | inhibition at 3 µM [7]: 0% | inhibition at 10 µM [7]: 0% | inhibition at 30 µM [7]: 0% | inhibition at 90 µM [7]: 0%

Br.Br.N=C(N)NCCC[C@@H](/C=C/S(=O)(=O)c1ccccc1)NC(=O)[C@H](CCCNC(=N)N)NC(=O)N1CCOCC1 [Mu-Arg-ARgVSPh.2HBr, (S)-(E)-3-(4-morpholinecarbonylarginyl)amino-6-guanidino-1-phenylsulfonyl-1-hexene dihydrobromide]
kirr [1]: 0.040 s⁻¹ | Ki ([1]; corrected for substrate): 150 µM | k/KI (kirr/KI) ([1]; 25° C., pH 6.2): 26 M⁻¹ s⁻¹ | kobs /[I]* (approximate second-order inactivation constant) [3]: 2,100 M^-1 sec^-1 | kobs /[I]* [4]: < 50 M⁻¹ s⁻¹

CCCC[C@@H](/C=C/S(=O)(=O)c1ccccc1)NC(=O)[C@H](CC(C)C)NC(=O)[C@H](CC(C)C)NC(C)=O [Ac-Leu-Leu-NleVSPh, (S)-(E)-3-(acetylleucylleucyl)amino-1-phenylsulfonyl-1-heptene]
k/KI (kirr/KI) ([1]; 25° C., pH 6.2): 0 M⁻¹ s⁻¹ | k/KI (kirr/KI) ([2]; 25° C., pH 6.2): 930,000 M^-1 sec^-1 | k/KI (kirr/KI) [3]: 133,000 M^-1 sec^-1 | kobs /[I]* [4]: 6,900 M^-1 sec^-1

CSCC[C@@H](/C=C/S(=O)(=O)c1ccccc1)NC(=O)[C@H](CC(C)C)NC(=O)[C@H](CC(C)C)NC(C)=O [Ac-Leu-Leu-MetVSPh, (S)-(E)-3-(acetylleucylleucyl)amino-1-phenylsulfonyl-6-thia-1-heptene]
k/KI (kirr/KI) ([1]; 25° C., pH 6.2): 0 M⁻¹ s⁻¹ | k/KI (kirr/KI) ([2]; 25° C., pH 6.2): 880,000 M^-1 sec^-1 | k/KI (kirr/KI) [3]: 110,000 M^-1 sec^-1 | kobs /[I]* [4]: 5,600 M^-1 sec^-1

CC(Cc1ccccc1)(NC(=O)N1CCOCC1)C(=O)N[C@H](/C=C/S(=O)(=O)c1ccccc1)CCc1ccccc1 (mixture of isomers) [Mu-DL-Fam-HphVSPh]
KI ([1]; corrected for substrate): binds | k/KI (kirr/KI) ([1]; 25° C., pH 6.2): 0 M⁻¹ s⁻¹ | KI ([2]; corrected for substrate): binds | k/KI (kirr/KI) ([2]; 25° C., pH 6.2): 0 M⁻¹ s⁻¹ | kirr [9]: 0.54 s⁻¹ | Ki ([9]; corrected for substrate): 14 µM | k/KI (kirr/KI) ([9]; values without asterisk, 25° C., pH 6.5): 39,000 M^-1 sec^-1 | kobs /[I]* (approximate second-order inactivation constant) [3]: 18,100 M^-1 sec^-1 | k/KI (kirr/KI) [4]: 0 M⁻¹ s⁻¹

CC(=O)N[C@@H](Cc1ccc(O)cc1)C(=O)N[C@H](C(=O)N[C@@H](C)C(=O)NC(/C=C/S(=O)(=O)c1ccccc1)CC(=O)O)C(C)C (stereo partly drawn) [Ac-Tyr-Val-Ala-AspVSPh, (e)-3-acetyltyrosylvalylalanylamino-4-hydroxycarbonyl-1-phenylsulfonyl-1-butene]
k/KI (kirr/KI) ([2]; 25° C., pH 6.2): 0 M⁻¹ s⁻¹ | k/KI (kirr/KI) [3]: 0 M⁻¹ s⁻¹ | k/KI (kirr/KI) [4]: 0 M⁻¹ s⁻¹

From US6287840A (Axys Pharmaceuticals, Inc., priority 1999, dated 2001)
